Measured values as given in patent US10034879B2, “Substituted benzaldehyde compounds and methods for their use in increasing tissue oxygenation” (Global Blood Therapeutics, Inc., priority 2011, dated 2018).

Assays:
[1] = system: Transgenic mice producing human HbS; settings: extreme hypoxia (5% oxygen), vs non-treated mice; cited from earlier work
[2] = target: T1, HbS/A (Homo sapiens, UniProt P68871+P69905, E7V); test: Relaxed-to-tense transition assay (R/T assay); type: biochemical; settings: 3 μM HbS/A
T1 construct: A mixture of HbS/A was purified from blood; from tissue; host or cells: blood of homozygous sickle cell patients
Method: A relaxed-to-tense transition assay (“R/T assay”) was used to determine the ability of substituted benzaldehyde compounds to maintain the high-oxygen affinity relaxed (R) state of hemoglobin under deoxygenated conditions. This ability can be expressed as a “delta R” value (i.e., the change in the time-period of the R state after hemoglobin is treated with a compound, as compared to the period without treatment with the compound). Delta R is the % R to remaining after the compounds treatment compared with no treatment (e.g. if R % without treatment is 8% while with treatment with a target compound is 48% R at 30 μM, then % R is 40% for that compound.
A mixture of HbS/A was purified from blood obtained from homozygous sickle cell patients though the Hemoglobinopathy Center at Children's Hospital Oakland Research Institute (CHORI) with Institutional Review Board approval. HbS/A (at a final concentration of 3 μM) was incubated for 1 hr at 37° C. in presence or absence of compounds in […] potassium phosphate buffer, pH=7.4 and 30 μM 2, 3 diphosphoglycerate (DPG) in 96 well plates in a final volume of 160 μl. Compounds were added at different concentrations (3 μM to 100 μM final concentrations). Plates were covered with a Mylar film. After incubation was completed the Mylar cover was removed and the plates were placed in a Spectrostar Nano plate reader previously heated at 37° C. Five minutes later, N2 (flow rate=20 L/min) was flowed through the spectrophotometer. Spectroscopic measurements (300 nm to 700 nm) were taken every 5 min for 2 hours. Data analysis was performed by using linear regression from the data retrieved for all wavelengths.
Table 4 below lists the delta R values where + indicates a delta R of between 0 and 30, ++ indicates a delta R of between 30 and 50, and +++ indicates a delta R of 50 or greater. Unless noted otherwise, the compounds in Table 2 were tested at 9 μM.

[3] = target: T2, purified HBS (Homo sapiens, UniProt P68871+P69905, E7V); test: HbS polymerization assay (delay time); type: biochemical; settings: 50 μM purified HBS, 1.8 M potassium phosphate pH 7.4
T2 construct: HbS is purified by the CRO VIRUSYS, from blood obtained from homozygous sickle cell patients; tissue VIRUSYS (CRO that did the purification); host or cells: blood of homozygous sickle cell patients
Method: Polymerization assays are carried out in vitro using purified HBS exchanged into 1.8 M potassium phosphate buffer at pH 7.4. Using a slightly modified protocol (Antonini and Brunori, 1971), HbS is purified by the CRO VIRUSYS, from blood obtained from homozygous sickle cell patients through the Hemoglobinopathy Center at Children's Hospital Oakland Research Institute (CHORI) with Institutional Review Board approval. Compounds are prepared in 100% DMSO and a desired amount is added to 50 μM of purified HBS at a final DMSO concentration of 0.3%. Final potassium phosphate concentration is adjusted to 1.8 M using a combination of 2.5 M potassium phosphate stock solution and water at pH 7.4. The reaction mixture is incubated for an hour at 37° C. and then transferred into a 24-well plate for deoxygenation in a glove box containing 99.5% nitrogen and 0.5% oxygen. The 24-well plate is not covered and incubated at 4° C. on a plate cooler inside the glove box for one and a half hours. Fifty μL of the reaction mixture is transferred into a 96-well plate and the absorbance at 700 nm is measured every minute for one hour at 37° C. in a plate reader located inside the glove box. A plot of the absorbance against time is fitted using a Boltzman sigmoidal fit and the delay time (from zero to time at half Vmax) is measured. To compare and rank compounds, delay times are expressed as percent delay (% DT), which is defined as the difference in delay times for HBS/compound and HBS alone multiplied by 100 and divided by the delay time for HBS alone.
Compounds listed below have been tested in the polymerization assay. Activity ranges are defined by the number of dagger (†) symbols indicated. † denotes activity ≤40% but ≤80%; †† denotes activity >80% but ≤120%; ††† denotes activity >120% but ≤140%; †††† denotes activity >160%.

[4] = target: T3, HbS (Homo sapiens, UniProt P68871+P69905, E7V); test: Whole blood assay, oxygen equilibrium curves of whole blood from sickle cell patients; type: cell-based; settings: hematocrit 20%, compound at 1000 μM
T3 construct: Oxygen Equilibrium Curves (OEC) of whole blood before and after treatment; endogenous in cells; host or cells: whole blood (red blood cells) of homozygous sickle cell patients
Method: Oxygen Equilibrium Curves (OEC) of whole blood before and after treatment with different concentrations of substituted benzaldehyde compounds were performed as follows using a HEMOX analyzer (TCS Scientific, New Hope, Pa.). Blood samples from homozygous sickle cell patients were obtained though the Hemoglobinopathy Center at Children's Hospital Oakland Research Institute (CHORI) with Institutional Review Board approval. The hematocrit was adjusted to 20% using autologous plasma and the blood samples were incubated for 1 hour at 37° C. in absence or presence of compounds. 100 μl of these samples were added to 5 mL of Hemox buffer (30 mM TES, 130 mM NaCl, 5 mM KCl, pH=7.4) at 37° C. and then transferred to the Hemox sample chamber. The samples were saturated with oxygen by flushing with compressed air for 10 minutes. The samples were then flushed with pure nitrogen and the respective absorbances of oxy- and deoxy-Hb are recorded as a function of the solution pO2. The oxygen equilibrium data were then fitted to the Hill Model to obtain values for p50. The deoxygenation curves for both whole blood alone (control) and whole blood in the presence of the compound were collected with the TCS software.
Table 5 below lists the delta p50% values where + indicates a delta p50% of between 0 and 29, ++ indicates a delta p50% of between 30 and 50, and +++ indicates a delta p50% of 50 or greater. The compounds in Table 2 were tested at 1000 μM.

Compound | % delta Delay [3] | amounts of hypoxia-induced sickled red blood cells [1] | survival times [1] | delta R (%) ([2]; compound at 30 μm) | delta p50% [4] | delta R (%) ([2]; compound at 9 μM)
O=Cc1ccc(CO)o1 [Compound 5HMF, 5-hydroxymethyl-2-furfuraldehyde] |  | reduced | significantly improved |  |  | 
O=Cc1c(O)cccc1OCc1cccc(-c2nn[nH]n2)c1 [Compound 44, 2-((3-(2H-tetrazol-5-yl)benzyl)oxy)-6-hydroxybenzaldehyde] |  |  |  |  | + (+ indicates a delta p50% of between 0 and 29) | +++ (+++ indicates a delta R of 50 or greater)
O=Cc1c(O)cccc1OCc1ccc(-c2nn[nH]n2)cc1 [Compound 45, 2-((4-(2H-tetrazol-5-yl)benzyl)oxy)-6-hydroxybenzaldehyde] | †† (†† denotes activity >80% but ≤120%) |  |  |  | + (+ indicates a delta p50% of between 0 and 29) | +++ (+++ indicates a delta R of 50 or greater)

More lines, main results first:

% delta Delay [3] | Compound | amounts of hypoxia-induced sickled red blood cells [1] | survival times [1] | delta R (%) ([2]; compound at 30 μm) | delta p50% [4] | delta R (%) ([2]; compound at 9 μM)
†† (†† denotes activity >80% but ≤120%) | O=Cc1c(O)cccc1OCc1ccc(C(=O)O)cc1 [Compound 42, 4-((2-formyl-3-hydroxyphenoxy)methyl)benzoic acid] |  |  | +++ (30 μm) (+++ indicates a delta R of 50 or greater) | + (+ indicates a delta p50% of between 0 and 29) | 
†† (†† denotes activity >80% but ≤120%) | O=Cc1ccccc1OCc1ccc(C(=O)O)cc1 [Compound 47, 4-((2-formylphenoxy)methyl)benzoic acid] |  |  |  |  | 
